# Measurements: US20210330713A1, “HUMAN HEPATOCYTES AND USES THEREOF” (ACCELERATED BIOSCIENCES CORP., priority 2014, published 2021)
# “Also recorded” adds a separate entry of the source.
# Key:
# [1] = cited from earlier work
# FGF receptor (FGFR) = target: T1, FGF receptor (FGFR) (Homo sapiens, UniProt P11362); test: FGFR inhibitor block of bFGF-induced PI3K by immunoblotting; type: cell-based; settings: hTS cells, bFGF 10 ng/ml
# T1 construct: endogenous in cells; host or cells: hTS cells (human trophoblast stem cells)
# T1 sequence (P11362 22-822): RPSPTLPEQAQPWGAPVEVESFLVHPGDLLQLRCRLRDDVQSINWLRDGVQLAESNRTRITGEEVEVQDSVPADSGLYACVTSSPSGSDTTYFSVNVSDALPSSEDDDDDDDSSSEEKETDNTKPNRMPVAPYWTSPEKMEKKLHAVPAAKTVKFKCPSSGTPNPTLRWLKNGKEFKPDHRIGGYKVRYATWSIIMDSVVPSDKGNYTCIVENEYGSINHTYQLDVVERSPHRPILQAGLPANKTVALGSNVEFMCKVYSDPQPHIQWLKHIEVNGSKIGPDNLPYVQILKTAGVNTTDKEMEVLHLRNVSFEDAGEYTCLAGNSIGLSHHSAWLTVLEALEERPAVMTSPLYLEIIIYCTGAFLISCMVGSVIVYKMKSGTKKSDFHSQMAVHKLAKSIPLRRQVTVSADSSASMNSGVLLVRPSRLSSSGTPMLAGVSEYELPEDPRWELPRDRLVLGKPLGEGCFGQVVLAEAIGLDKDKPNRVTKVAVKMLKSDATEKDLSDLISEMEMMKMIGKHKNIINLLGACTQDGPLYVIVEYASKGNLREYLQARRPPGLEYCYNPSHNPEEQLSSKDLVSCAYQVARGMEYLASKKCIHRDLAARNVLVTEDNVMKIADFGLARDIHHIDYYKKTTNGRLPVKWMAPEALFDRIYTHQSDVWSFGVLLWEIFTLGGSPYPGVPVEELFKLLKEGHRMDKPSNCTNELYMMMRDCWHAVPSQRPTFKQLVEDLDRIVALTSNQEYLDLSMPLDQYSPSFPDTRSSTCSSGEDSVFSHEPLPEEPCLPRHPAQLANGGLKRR
# Protocol: (§1) For immunoblotting assay, cells were harvested into RIPA lysis solution (Millipore, Billerica, Mass.) supplemented with protease and phosphatase inhibitors (Roche). After electrophoresis of 30 μg lysates on polyacrylamide gels, electroblotting onto PDVF membranes (Millipore) was performed. After blocked by 5% non-fat milk in PBS at room temperature (1 hr), target protein was detected by using primary antibody. All membranes were incubated with chemiluminescent (Millipore) and imaging was captured by the ChemiDoc XRS system (Bio-RAD). Data were analyzed by AlphaEaseFC (version 4.0.0) system. For IP assay, Cell lysates of bFGF-treated hTS cells were collected. By incubation with protein G-agarose (Millipore) for 30 min, total protein (100 μg) was treated with specific primary antibody overnight listed in Table 1. After treating with protein G-agarose beads (2 hr), sample was washed three times with RIPA lysis buffer (Millipore), following by adding with protein loading dye and boiled for 5 min. […]
# (§2) For immunoblotting assay, cells were harvested into RIPA lysis solution (Millipore, Billerica, Mass.) supplemented with protease and phosphatase inhibitors (Roche). […] After blocked by 5% non-fat milk in PBS at room temperature (1 hr), target protein was detected by using primary antibody. […] Data were analyzed by AlphaEaseFC (version 4.0.0) system. […]
# CYP7A1 = settings: hypercholesterolemic hamsters; cited from earlier work
# hTS cells [2] = test: Hepatocytic differentiation of hTS cells after DE stage; settings: dexamethasone 0.1 μM and oncostatin M 10 ng/ml added at 8 hr of bFGF induction, 4 days
# CYP3A4 = test: Functional cytochrome p450 assay by qPCR, CYP3A4; settings: hepatocyte-like cells, rifampicin 25 μM + itraconazole 25 μM, 24 hr
# hTS cells [3] = test: bFGF induction of DE differentiation in hTS cells, DE-associated markers over time; type: cell-based, human; settings: bFGF 10 ng/ml
# Protocol: For immunoblotting assay, cells were harvested into RIPA lysis solution (Millipore, Billerica, Mass.) supplemented with protease and phosphatase inhibitors (Roche). After electrophoresis of 30 μg lysates on polyacrylamide gels, electroblotting onto PDVF membranes (Millipore) was performed. After blocked by 5% non-fat milk in PBS at room temperature (1 hr), target protein was detected by using primary antibody. All membranes were incubated with chemiluminescent (Millipore) and imaging was captured by the ChemiDoc XRS system (Bio-RAD). Data were analyzed by AlphaEaseFC (version 4.0.0) system. For IP assay, Cell lysates of bFGF-treated hTS cells were collected. By incubation with protein G-agarose (Millipore) for 30 min, total protein (100 μg) was treated with specific primary antibody overnight listed in Table 1. After treating with protein G-agarose beads (2 hr), sample was washed three times with RIPA lysis buffer (Millipore), following by adding with protein loading dye and boiled for 5 min. The sample was resolved by 8% SDS-PAGE and subjected to immunoblotting analysis.
# (§3) Slides with cell culture was fixed for 30 min at room temperature in 95% (v/v) ethanol, washed three times in PBS and incubated with blocking buffer PBS containing 0.1% (wt/v) Triton X-100 (Sigma) and 5% (v/v) normal donkey serum (Millipore) for 60 min. Primary and secondary antibodies were diluted in blocking buffer. Primary antibody was incubated. After incubation with specific primary antibody in PBS at 4° C. (24 hr) or room temperature (2 hr), appropriate fluorescein isothiocyante (FITC, Invitrogen) or ALEXA FLUOR® 488, 594, and 647 (Invitrogen) or Dylight 488 and 594 (BioLegend) conjugated secondary antibody was added at room temperature (1 hr). After DAPI staining of nucleus (5 min), incubation with secondary antibody (1 hr) at room temperature, and washes, sample was mounted with 50% glycerol. Images were captured by confocal laser scanning microscopy (LSM700; Zeiss Z1 or Olympus FluoView 1000 confocal laser scanning microscope) or TissueFAXS system (TissueQnostics GmbH, Vienna, Austria). Data were analyzed by TissueQuest software.
# This study was approved by the Institutional Review Board on Human Subjects Research and Ethics Committees (KMUHIRB-20140071). […] For DE differentiation, cells were carried out by a conditioned a-MEM media containing 10% FBS, 2-mercaptoethanol (1 mM), nicotinamide (10 mM), and bFGF (10 ng/ml) for 8 hr, according to the empirical studies (data not shown). […] Cells were harvested at 4-7 days for assay as indicated. Determination of stage-specific differentiation of lineages depends on the hepatic cell-associated markers in liver development.
# as §3, with “Briefly, slides” for “Slides”, “DYLIGHT®” for “Dylight”, “glycerol.” for “glycerol. Images were captured by confocal laser scanning microscopy (LSM700; Zeiss Z1 or Olympus FluoView 1000 confocal laser scanning microscope) or TissueFAXS system (TissueQnostics GmbH, Vienna, Austria). Data were analyzed by TissueQuest software.”
# [4] = test system: PI3K/AKT/CREB1 signaling pathway; test: bFGF-induced PI3K/AKT/CREB1 signaling by immunoblotting; type: cell-based, human; settings: bFGF 10 ng/ml, 4 hr induction, hTS cells
# Protocol: as §1, §2
# miR-124a = miR-124a expression in hTS cells by qPCR; type: cell-based, human; settings: bFGF induction, DE stage
# Description: U6 snRNA (RNU6B; Applied Biosystems) served as an endogenous control.
compound,measurement,setting,value
"ClC(Cl)(Cl)Cl [CCl4, carbon tetrachloride]",half-live in blood,[1],24 h
COc1cc(OC)cc(-c2cc3cnc(N)nc3nc2NC(=O)NC(C)(C)C)c1 [PD166866],bFGF-induced activation of PI3K,FGF receptor (FGFR),block
CC(=O)c1c(O)cc(O)cc1O [THA],CYP7A1 activity and mRNA expression,CYP7A1,promotes both CYP7A1 activity and mRNA expression
same,plasma cholesterol and triglyceride,CYP7A1,reduce both plasma cholesterol and triglyceride
C[C@@H]1C[C@H]2[C@@H]3CCC4=CC(=O)C=C[C@]4(C)[C@@]3(F)[C@@H](O)C[C@]2(C)[C@@]1(O)C(=O)CO [dexamethasone],differentiation to hepatocyte-like cells expressing hepatic markers,hTS cells [2],resulted in the differentiation of hepatocyte-like cells
CCC(C)n1ncn(-c2ccc(N3CCN(c4ccc(OCC5COC(Cn6cncn6)(c6ccc(Cl)cc6Cl)O5)cc4)CC3)cc2)c1=O (stereo not shown) [itraconazole],inducer-induced CYP3A4 mRNA in response to inhibitor,CYP3A4,reduced
"bFGF: basic fibroblast growth factor, used at 10 ng/ml to induce DE differentiation of hTS cells",SOX17 levels at peak,"hTS cells [3]; 2 hr, immunoblotting",1.5 fold
same,"intensity of Mixl1, nadir lower than the native one","hTS cells [3]; 4 hr, TissueFAX analysis",~50%
same,"MIXL1 levels, nadir lower than the native one","hTS cells [3]; 4 hr, immunoblotting",~50%
same,DE formation,hTS cells [3]; 8 hr induction,efficiently yield DE; also recorded: rapidly differentiate hTS cells to DE stage
same,FOXA2 highest levels,"hTS cells [3]; 8 hr, immunoblotting",3 fold
same,activation of the PI3K/AKT1/CREB1 signaling pathway,[4],induces activation
same,time of peak miR-124a expression,miR-124a,4 h
